# Measurements from ChEMBL document CHEMBL3507680, “University of Dundee, Gates Library screen for HepG2 cell viability”.
# Assay: Human HepG2 cell viability assay in 384 well format
# Assay type: toxicity, cell-based
# Parameters: dose 125 nL, time 70.5 hour; concentration not given beside the values
# Settings: HepG2 cells, read-out: Inhibition
row,Structure (SMILES),cytotoxicity at 70.5 h [%]
1,O=c1c2sccc2nc2n1CCN(Cc1cc(F)ccc1F)CC2,-7.47
2,O=C(CNC(=O)c1ccccc1I)NCc1ccccc1F,-10.2
3,OC(CN(Cc1ccccc1)Cc1ccon1)c1cccs1 (stereo unspecified),-5.21
4,c1ccc(-c2noc(CN3CCOC(Cn4cccn4)C3)n2)nc1 (stereo unspecified),-8.08
5,O=C1Nc2ccccc2CC12CCCN2Cc1ccc(F)cc1 (stereo unspecified),9.33
6,OCCN(Cc1cccnc1)c1ncc(Br)cn1,-2
7,O=C1CCNc2ccc(F)cc2CN1Cc1ccco1,2.21
8,Cc1cc2[nH]c(CN3CCOC(c4ccc(F)cc4)C3)cc(=O)n2n1 (stereo unspecified),-3.51
9,CC(C)C(C)N(C)Cc1nnc(-c2ccc(Br)s2)o1 (stereo unspecified),-3
10,Cc1cccc(-c2noc(CN3CCc4c(ncn4C4CC4)C3)n2)c1,-13.2
11,COc1ccc(C2=CCN(C(=O)CN(C)Cc3ccoc3)CC2)cc1,49.4
12,COc1ncccc1CNC(=O)Nc1cccnc1N1CCCC1,5.6
13,Cc1nc(COCc2nc3c(o2)CN(C(=O)c2ccc[nH]2)C3)cs1,-3.29
14,O=C(CNc1cc(F)ccc1OC(F)F)NCC(F)(F)F,2.53
15,CCOCC(=O)N1CCC(c2cc3ncccc3c(O)n2)CC1,-6.58
16,CS(=O)(=O)NC(=O)c1ccn(-c2cccc(Br)c2)n1,-3.84
17,CCc1ccc(OCC(O)CN2CCN(CCO)CC2)cc1 (stereo unspecified),-3.3
18,CCOc1cc(CN(C)CCCC#N)ccc1OC(F)F,-6.87
19,O=C(CC1NC(N2CCc3ccccc32)=NC1=O)Nc1ccccc1 (stereo unspecified),-5.06
20,Cc1nnsc1CN1CC[C@@](O)(C2CCC2)[C@H](C)C1,-7.08
21,CC(C)Sc1ccc(C(C)NC(=O)Cn2cccnc2=O)cc1 (stereo unspecified),-15.1
22,CCc1noc(C)c1C(=O)N1CCCC1c1c(C)nn(C)c1C (stereo unspecified),-1.9
23,O=C(O)c1cc(/C=C/c2ccc3ccccc3c2)ncn1,-7.92
24,CSc1nc2cc(C)n(CC(=O)N3CCCC3)c2c(=O)n1CC(C)C,-5.31

row,Structure (SMILES),cytotoxicity at 70.5 h [%]
1,NC(=O)COc1ccc(CNCc2ccc(Cl)c(F)c2)cc1,-0.573
2,O=C1Nc2ccccc2C12CCN(Cc1cccs1)CC2,-2.74
3,CC(C)n1ccnc1CN1CCCN(C(=O)CC2CCCO2)CC1 (stereo unspecified),23.9
4,CC(C)(C)n1ncc2c(=O)n(CC(=O)NCc3ccccc3)cnc21,7.32
5,CCNc1nc2c(s1)C(=O)CN(C(=O)NCCc1ccccc1)C2,-17.7
6,O=C(c1ccc(-c2ccsc2)nc1)N1CCCN(C2CCCCC2)CC1,17
7,Cc1nc(Nc2cnccn2)cc(C2CN(C(C)C)C2)n1,-6.87
8,CCCn1ccnc1CN1CCCC1c1ccccn1 (stereo unspecified),-4.45
9,CC(C)n1nccc1NC(=O)CN1CCc2sccc2C1,-15.3
10,O=C1CCCc2[nH]c(=O)c(C(=O)N(CC3CCCCC3)C3CC3)cc21,-7.98
11,CCOCC1CCN(C(=O)C(c2cccc(F)c2)N(C)C)CC1 (stereo unspecified),27.9
12,O=C(NCCc1cc2nc(-c3ccncc3)ccn2n1)C1CCOCC1,-5.82
13,Cc1nc(CNC(=O)NCC(O)c2ccc(F)c(F)c2)cs1 (stereo unspecified),1.43
14,O=C(c1cnccn1)N1CCN(Cc2ccncc2)c2ncccc2C1,-5.23
15,O=C(NC1CC1)N1CCCC2(CCNC2=O)C1 (stereo unspecified),-3.68
16,COc1ccc2c(c1)OCC(C(=O)NCc1ncc3c(n1)CCC3)C2 (stereo unspecified),-8.14
17,CC(C)Nc1nc2c(s1)C(=O)CN(C(=O)NCc1ccccc1)C2,1.44
18,N#Cc1cccc(S(=O)(=O)NC(=O)C2CC(c3ccccc3)=NO2)c1 (stereo unspecified),-18.7
19,CCc1nc(C)c(C(=O)N[C@@H]2c3ccccc3C[C@@H]2O)o1,16
20,COc1ccc2c(c1)CC(NCc1cccc(NC(C)=O)c1)CC2 (stereo unspecified),-5.85
21,COc1ccc(S(=O)(=O)NCc2cccnc2N(C)C)cc1F,40.3
22,Cc1cc(C(=O)N2CCN(c3nc4ccccc4s3)CC2)no1,48.3
23,CO[C@@H]1CCN(c2ncccn2)[C@H]1Cc1ccccc1,1.42
24,CCS(=O)(=O)N1CCC2(CC(=O)N(c3cncnc3)C2)C1 (stereo unspecified),-3.21

row,Structure (SMILES),cytotoxicity at 70.5 h [%]
1,CC(C)N(Cc1ccc(C#N)cc1)C(=O)NCCNc1ncccn1,-12.7
2,CCOCCn1nc(C)cc1C(=O)N1CCC2(CC1)[C@H](O)C[C@@H]2OCC,0.508
3,CN(C)C(=O)CC1CC2(CCN(Cc3ccco3)CC2)c2ccccc21 (stereo unspecified),-27.6
4,CC1CCN(C(=O)c2ccn(COc3ccccc3)n2)CC1,-4.91
5,Cc1cc(C)n(CC2CCCN2CCc2ccncc2)n1 (stereo unspecified),17.9
6,COCCC(=O)NCC(O)c1c(F)cccc1F (stereo unspecified),-7.9
7,CN(Cc1ccsc1)C(=O)c1n[nH]c(N)c1-c1ccccc1,-1.37
8,CN(C)CC(=O)N1Cc2nc(C(=O)NCc3ccccc3)oc2C1,13
9,CCN1CC[C@]2(CN(C(=O)[C@H]3CCCO3)C[C@H]2c2ccccc2)C1=O,-1.85
10,Cc1cc(C)c(S(=O)(=O)Nc2cccc3c2OCCO3)cc1C(=O)O,-27.2
11,CN1CCN(CC(NCc2ccc(F)c(F)c2)c2ccccc2)CC1 (stereo unspecified),5.13
12,Cc1ncnc2c1CCN(C(=O)c1ccsc1)CC2,7.97
13,CC(C)(C)c1nc(CNc2ccccc2SCCC(N)=O)cs1,-107
14,Cc1nc2cc(NC(=O)Cn3ncc(N4CCCC4)cc3=O)ccc2s1,-4.89
15,CCCc1nnc(N2CCN(c3ccccc3F)CC2)o1,13.5
16,COc1cc(N2C[C@@H](C)[C@](O)(C3CC3)C2)ncn1,5.18
17,COCCN1C(=O)CCC12CCCN(C(=O)NC(C)C)CC2 (stereo unspecified),7.1
18,CCCc1nc(C(C)(C)NC(=O)C2CC(=O)N(C3CC3)C2)no1 (stereo unspecified),-6.42
19,CC(C)Nc1ncnc2c1CCN(C(=O)CN(C)C)CC2,36.6
20,Cc1cn[nH]c1C1COCCN1C(=O)c1cc(F)ccc1F (stereo unspecified),5.9
21,COc1ccc(-n2cc(CNC(=O)c3ccc[nH]3)nn2)cc1,-2.18
22,Cc1c(C(=O)NCCC(=O)N2CCOCC2)sc2ccc(F)cc12,1.17
23,Cc1cc(CN(C)C(=O)c2ccc(F)cc2Br)no1,-9.11
24,COc1ccc(NC(=O)CSC(F)(F)F)cn1,9.73

row,Structure (SMILES),cytotoxicity at 70.5 h [%]
1,Cn1c2c(ccc1=O)CCN(Cc1ccoc1)CC2,4.43
2,Cc1nnc(SC2CCc3ccccc3NC2=O)n1C (stereo unspecified),-23
3,CCOC(=O)CNC(=O)NCc1cccn1Cc1cccc(C)c1,-18.9
4,CC(C)COc1cncc(NCCc2nnc3ccccn23)n1,-4.15
5,O=C(NCCNc1cncc(Br)c1)c1ccc(O)cc1,-8.4
6,CCc1nc(CN2CCOC(Cn3nc(C)nc3C)C2)no1 (stereo unspecified),3.11
7,COC(=O)c1cc(C)nc(N2CCN(Cc3cc(C(C)C)no3)CC2)n1,-12.8
8,O=C(NC1CC(=O)N(C2Cc3ccccc3C2)C1)c1cnccn1 (stereo unspecified),-4.83
9,COc1c(C2CCCN2C(=O)c2ccc(Cl)o2)c(C)nn1C (stereo unspecified),-5.88
10,COCC(=O)N1CC[C@H]2OCC[C@@]2(c2nc(C)no2)C1,12.4
11,CCNC(=O)[C@@H]1CCCN1C1(C(=O)NC)CCC1,-5.11
12,CCOCCN1CCN(CC(O)c2ccc(C)c(C)c2)CC1 (stereo unspecified),-10.1
13,O=c1cc(-c2cccnc2)nc(-c2ccc(CN3CC[C@@H](O)C3)cc2)[nH]1,12.1
14,O=C(NCc1ccccc1F)N1CCCCC1C1OCCO1 (stereo unspecified),-17.1
15,CN(C)C(=O)CN1CCN(c2cc(N3CCCC3CO)ncn2)CC1 (stereo unspecified),-4.56
16,Cc1cc(CN(CCO)c2ccccc2)on1,0.618
17,CSCCN1CCC(NC(=O)OC(C)(C)C)CC1,-6.72
18,O=C(N1CCCC1)N1CC[C@H]2[C@H]1CCN2c1ncccn1,-3.91
19,CC(C)CCN1C2(CCN(Cc3nccs3)C2)c2ccccc2S1(=O)=O (stereo unspecified),-11.4
20,COc1ccc2c(c1)CCCC2CC(=O)NCC(=O)O (stereo unspecified),-4.55
21,CCc1nn(C)c(Cl)c1CN1C[C@H](NC(=O)CCO)[C@@H](C(C)C)C1,-5.11
22,Cc1nn(C)c2nc(NC(C)c3n[nH]c(=O)[nH]3)sc12 (stereo unspecified),-10.8
23,CC1(C)CNC(=O)c2nc(-c3nnn[nH]3)[nH]c2C1,-3.01
24,O=C(COCC(=O)N1CCCCCC1)NCc1cccc(Br)c1,0.154

row,Structure (SMILES),cytotoxicity at 70.5 h [%]
1,COc1ccc(CC(=O)NC(CC(=O)O)c2ccc(F)cc2)cc1OC (stereo unspecified),-5.71
2,NC(=O)c1nc2c(s1)CCN(C(=O)Nc1cccc(Cl)c1)CC2,7.06
3,CCn1cc(CN2CCCC(CO)(CCc3ccccc3)C2)c(C)n1 (stereo unspecified),-7.26
4,Cc1cc(CNC(=O)CC2CN(C(=O)OC(C)(C)C)C2)ccc1F,-9.79
5,CCOc1ccc(CN2CCOCC2c2[nH]ncc2C)cc1CO (stereo unspecified),-2.3
6,CN1C(=O)C(c2cccnc2)CC12CCN(C(=O)c1cccn1C)CC2 (stereo unspecified),-10.3
7,CN(CC(C)(C)C)c1ccc(C(=O)NCCCc2ccccn2)cn1,-8.74
8,N#Cc1cc(F)ccc1CN1CCCCC1Cn1cncn1 (stereo unspecified),-4.9
9,Cc1nc(C)c(C(=O)N2CCCN(Cc3cnn(C)c3)CC2)s1,-3.11
10,CCS(=O)(=O)N1CCCCC1c1nc(CC(C)C)no1 (stereo unspecified),-8.14
11,c1cc2nccc(CC3CCCN(C4CCOCC4)CC3)c2cn1 (stereo unspecified),-1.46
12,Cc1nn(C)c2nc(NCCCN3CCCC(CO)C3)sc12 (stereo unspecified),-9.15
13,CC(C)c1nn(C)c(Cl)c1CNCc1cccnc1N(C)C,-9.54
14,O=C(c1ncccn1)N1C[C@@H]2COC[C@]2(COc2cccnc2)C1,-4.57
15,CC(=O)NC1CCN(C(=O)c2cnc(COc3ccccc3)nc2O)C1 (stereo unspecified),-4.02
16,Cc1nn(C)c(Oc2ccccc2)c1CNC1CCOc2ccccc21 (stereo unspecified),-1.6
17,Cc1cccc(NC2CCN(C(=O)Nc3ccccn3)CC2)n1,2.1
18,N#Cc1ccc(NCCC2CCN(CC(F)(F)F)CC2)nc1,2.24
19,O=C(c1ccoc1)N1CCN(Cc2ccccc2F)CC1,-3.32
20,CCCN(CC1CC1)C(=O)CN1CCCC1c1cnn(C)c1 (stereo unspecified),-10.4
